Experimental data from article PMC11161644, “An effective and rapidly degradable disinfectant from disinfection byproducts” (Nature Communications, 2024).
“And” between values parts separate entries of the source, which are not always exact repeats. Equal values may be shown once. Read-outs that look alike come from different tables or passages of the source.

How the values were obtained:
S. aureus (ATCC 25923) = experiment: Inactivation of S. aureus (contact time 5 min); type: cell-based, Staphylococcus aureus
How it was run: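 Cells (10^6‒10^7 per mL) in 10 mM PBS pH 7.2 exposed to a series of DBP doses for 5 min at 22 ± 1 °C. Survivors enumerated by membrane filtration and colony counts after 24 h at 37 °C (S. aureus, Tryptone Soya; C. albicans, Sabouraud) relative to undisinfected control.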

P. dumerilii embryos = experiment: Developmental toxicity assay with P. dumerilii embryos, dilution factor of in-use concentration (EC50,DF), also after degradation in darkness; type: in vivo, Platynereis dumerilii; conditions: for Normal development: PCMX
How it was run: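 In-use DBP doses (3-log E. coli reduction, pH 7.2) were serially diluted onto embryos at 12 h postfertilization in seawater. Normal development to first larval stage was scored by microscopy at 24 h postfertilization, in duplicate. EC50,DF is the dilution factor giving 50% of control normal development.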

[1] = Degradation in seawater in darkness (pH 6.2, 7.2, 8.2)
How it was run: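 DBP spiked at 10 mg L^−1 into pretreated seawater in foil-wrapped quartz flasks, held at 20 °C in darkness for 0‒120 h with 4 mM phosphate buffer at pH 6.2, 7.2 or 8.2. Aliquots analysed by reversed-phase HPLC-UV (230 or 280 nm); duplicate runs.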

E. coli (ATCC 25922) = experiment: Inactivation of E. coli by disinfectants (membrane filter enumeration, contact time 5 min); type: cell-based, Escherichia coli; conditions: for log reduction at 200 µg/mL: dose 200 mg L-1, 5 min, read-out: Log (N/N0)
How it was run: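 E. coli ATCC 25922 (10^6‒10^7 cells/mL) exposed to a series of DBP doses in 10 mM PBS (pH 7.2; pH effect tested at 6.2, 7.2, 8.2) for 5 min at 22 ± 1 °C. Survivors enumerated by membrane filtration on m-FC medium at 45 °C for 24 h; inactivation relative to undisinfected control.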

Cc1cc(O)cc(C)c1Cl [PCMX, para-chloro-meta-xylenol, reference compound]
log reduction at 300 µg/mL (S. aureus (ATCC 25923); Staphylococcus aureus, ATCC25923, 5 min, pH 7.2, S. aureus, dose 300 mg L-1, pH 7.2, contact time 5 min, read-out: Log (N/N0)): 3.04
Dose for achieving 3-log inactivation of S. aureus (S. aureus (ATCC 25923); pH 7.2, contact time 5 min): 308 mg L−1
S. aureus inactivation rate constant k (S. aureus (ATCC 25923); pH 7.2, contact time 5 min): 0.22 L/mg/h
Normal development (P. dumerilii embryos; degradation 0 h, dilution factor 6.7143): 0%
Normal development (P. dumerilii embryos; degradation 0 h, dilution factor 7.2308): 4.232% and 2.756%
Normal development (P. dumerilii embryos; degradation 0 h, dilution factor 7.6735): 25.4292% and 17.7492%
Normal development (P. dumerilii embryos; degradation 0 h, dilution factor 8.1739): 29.4152% and 29.5272%
Normal development (P. dumerilii embryos; degradation 0 h, dilution factor 8.7442): 46.2529% and 46.0367%
Normal development (P. dumerilii embryos; degradation 0 h, dilution factor 9.4): 56.894% and 62.197%
Normal development (P. dumerilii embryos; degradation 0 h, dilution factor 10.4444): 76.1488% and 70.708%
Normal development (P. dumerilii embryos; degradation 0 h, dilution factor 11.75): 84.2318% and 84.1758%
Normal development (P. dumerilii embryos; degradation 48 h, dilution factor 6.7143): 0%
Normal development (P. dumerilii embryos; degradation 48 h, dilution factor 7.2308): 0%
Normal development (P. dumerilii embryos; degradation 48 h, dilution factor 7.6735): 5.72% and 1.379%
Normal development (P. dumerilii embryos; degradation 48 h, dilution factor 8.1739): 20.3803% and 14.4749%
Normal development (P. dumerilii embryos; degradation 48 h, dilution factor 8.7442): 43.6056% and 44.3682%
Normal development (P. dumerilii embryos; degradation 48 h, dilution factor 9.4): 43.7739% and 49.5131%
Normal development (P. dumerilii embryos; degradation 48 h, dilution factor 10.4444): 54.207% and 47.1234%
Normal development (P. dumerilii embryos; degradation 48 h, dilution factor 11.75): 73.3565% and 68.3577%
Normal development (%) (P. dumerilii embryos; dilution factor 6.7143 of in-use concentration): 0%
Normal development (%) (P. dumerilii embryos; dilution factor 7.2308): 4.232% and 2.756%
Normal development (%) (P. dumerilii embryos; dilution factor 7.6735): 25.4292% and 17.7492%
Normal development (%) (P. dumerilii embryos; dilution factor 8.1739): 29.4152% and 29.5272%
Normal development (%) (P. dumerilii embryos; dilution factor 8.7442): 46.0367% and 46.2529%
Normal development (%) (P. dumerilii embryos; dilution factor 9.4): 62.197% and 56.894%
Normal development (%) (P. dumerilii embryos; dilution factor 10.4444): 76.1488% and 70.708%
Normal development (%) (P. dumerilii embryos; dilution factor 11.75): 84.2038%
half-life at 10 mg L−1 ([1]; pretreated seawater in darkness): ~240 days
Ln (C/C0) ([1]; seawater pH 8.2, darkness, 0 h): 0
Degradation in 120 h ([1]; seawater, absence of sunlight): less than 5%
log reduction at 200 µg/mL (E. coli (ATCC 25922); Escherichia coli, ATCC25922, 5 min, pH 6.2, E. coli, pH 6.2): 4.19
log reduction at 200 µg/mL (E. coli (ATCC 25922); Escherichia coli, ATCC25922, 5 min, pH 7.2, E. coli, pH 7.2): 3.54
log reduction at 200 µg/mL (E. coli (ATCC 25922); Escherichia coli, ATCC25922, 5 min, pH 8.2, E. coli, pH 8.2): 5.56
EC (3-log inactivation) (E. coli (ATCC 25922); Escherichia coli, ATCC25922, 5 min, pH 7.2, contact time 5 min, read-out: Dose for achieving 3-log inactivation of E. coli): 188 µg/mL
E. coli inactivation rate constant k (E. coli (ATCC 25922); pH 7.2, contact time 5 min): 0.66 L mg‒1 h‒1
